The NIST ThermoML archive (doi:10.1021/je049912x)

Assays:
[1] = 101.33 kPa, Liquid
[2] = xn = mol fraction of the nth substance listed; settings: 101.33 kPa, Liquid

CCCCO [butan-1-ol]
[1]
Settings | mass density [kg/m3] | speed of sound [m/s] | viscosity [mPa·s]
298.15 K | 807.7 | 1238 | 2.564
308.15 K | 800.1 | 1211 | 2

CCCCO [butan-1-ol] + CCc1ccccc1
[2], x2 = 0
Settings | mass density [kg/m3] | speed of sound [m/s] | viscosity [mPa·s]
298.15 K | 807.7 | 1238 | 2.564
308.15 K | 800.1 | 1211 | 2

CCO [ethanol]
[1]
Settings | mass density [kg/m3] | speed of sound [m/s] | viscosity [mPa·s]
298.15 K | 785.5 | 1160 | 1.117
308.15 K | 776.3 | 1112 | 0.935

CCO [ethanol] + CCc1ccccc1
[2], x2 = 0
Settings | mass density [kg/m3] | speed of sound [m/s] | viscosity [mPa·s]
298.15 K | 785.5 | 1160 | 1.117
308.15 K | 776.3 | 1112 | 0.935

CCc1ccccc1 [ethylbenzene]
[1]
Settings | mass density [kg/m3] | speed of sound [m/s] | viscosity [mPa·s]
298.15 K | 862 | 1312 | 0.628
308.15 K | 855.5 | 1276 | 0.553

CCc1ccccc1 [ethylbenzene] + CCCCO
[2]
Settings | mass density, 298.15 K [kg/m3] | mass density, 308.15 K [kg/m3] | speed of sound, 298.15 K [m/s] | speed of sound, 308.15 K [m/s] | viscosity, 298.15 K [mPa·s] | viscosity, 308.15 K [mPa·s]
x1 = 0.1035 | 816.7 | 808.9 | 1246 | 1217 | 1.985 | 1.569
x1 = 0.205 | 821.2 | 815.3 | 1256 | 1223 | 1.565 | 1.253
x1 = 0.3221 | 828.1 | 822 | 1264 | 1229 | 1.236 | –
x1 = 0.365 | 831.1 | 824.5 | 1267 | 1231 | 1.147 | 0.941
x1 = 0.5071 | 839.6 | 832.1 | 1277 | 1239 | 0.916 | 0.765
x1 = 0.6494 | 845.7 | 839.1 | 1288 | 1249 | 0.764 | 0.651
x1 = 0.8136 | 854.5 | 846 | 1301 | 1262 | 0.693 | 0.577
x1 = 0.91 | 858.6 | 852.6 | 1307 | 1268 | 0.649 | 0.566
x1 = 1 | 862 | 855.5 | 1312 | 1276 | 0.628 | 0.553

CCc1ccccc1 [ethylbenzene] + CCCO
[2]
Settings | mass density, 298.15 K [kg/m3] | mass density, 308.15 K [kg/m3] | speed of sound, 298.15 K [m/s] | speed of sound, 308.15 K [m/s] | viscosity, 298.15 K [mPa·s] | viscosity, 308.15 K [mPa·s]
x1 = 0.109 | 811.4 | 803.7 | 1227 | 1194 | 1.543 | 1.226
x1 = 0.1677 | 817.3 | 807.1 | 1233 | 1202 | 1.375 | 1.098
x1 = 0.3777 | 828.5 | 823.5 | 1257 | 1224 | 0.976 | 0.809
x1 = 0.5006 | 837.9 | 833.1 | 1266 | 1233 | 0.839 | 0.702
x1 = 0.6429 | 845.1 | 839 | 1277 | 1245 | 0.712 | 0.616
x1 = 0.8074 | 853.3 | 844.3 | 1287 | 1258 | 0.638 | 0.562
x1 = 0.8951 | 857 | 850 | 1299 | 1264 | 0.606 | 0.542
x1 = 1 | 862 | 855.5 | 1312 | 1276 | 0.628 | 0.553

CCc1ccccc1 [ethylbenzene] + CCO
[2]
Settings | mass density, 298.15 K [kg/m3] | mass density, 308.15 K [kg/m3] | speed of sound, 298.15 K [m/s] | speed of sound, 308.15 K [m/s] | viscosity, 298.15 K [mPa·s] | viscosity, 308.15 K [mPa·s]
x1 = 0.0712 | 795 | 789.6 | 1170 | 1133 | 1.026 | 0.856
x1 = 0.1551 | 807.2 | 801.6 | 1185 | 1155 | 0.947 | 0.788
x1 = 0.2404 | 817.6 | 811.7 | 1203 | 1173 | 0.864 | 0.719
x1 = 0.352 | 827 | 820 | 1228 | 1195 | 0.789 | 0.656
x1 = 0.4053 | 836 | 823.2 | 1235 | 1203 | 0.764 | 0.629
x1 = 0.553 | 842.3 | 835.8 | 1261 | 1223 | 0.684 | 0.587
x1 = 0.7382 | 853.6 | 842.8 | 1278 | 1250 | 0.639 | 0.548
x1 = 0.8805 | 858.5 | 851.2 | 1291 | 1266 | 0.623 | 0.544
x1 = 1 | 862 | 855.5 | 1312 | 1276 | 0.628 | 0.553

CCCO [propan-1-ol]
[1]
Settings | mass density [kg/m3] | speed of sound [m/s] | viscosity [mPa·s]
298.15 K | 799.6 | 1213 | 2.042
308.15 K | 792 | 1182 | 1.565

CCCO [propan-1-ol] + CCc1ccccc1
[2], x2 = 0
Settings | mass density [kg/m3] | speed of sound [m/s] | viscosity [mPa·s]
298.15 K | 799.6 | 1213 | 2.042
308.15 K | 792 | 1182 | 1.565
